# Data reported in patent publication US8686150B2 (Sanofi, priority 2011, dated 2014).
# Target: T1, human full-length recombinant PKC βII (Homo sapiens, UniProt P05771)
# T1 construct: Active human full-length recombinant PKC βII; purchased Invitrogen GmbH, Darmstadt, Germany
# Experiment: Determination of PKC βII inhibition (Caliper mobility-shift kinase assay, Fluorescein-RFARKGSLRQKNV peptide substrate)
# Type: biochemical
# Settings: example compounds at a final concentration of 1.14 μM (±0.15 μM)
# Summary of the method: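 Full-length PKC βII (30 ng/ml in pre-dilution) with PS/DAG/Ca2+ activators, pH 7.4; fluorescein peptide and ATP at 3 μM and 120 μM before mixing. Reaction ran 60 min at 32 °C, was EDTA-stopped, and was read by mobility shift. % inhibition came from product/(substrate+product) peak heights, tested at 1.14 μM final.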
# T1 sequence (P05771 1-673 isoform P05771-2): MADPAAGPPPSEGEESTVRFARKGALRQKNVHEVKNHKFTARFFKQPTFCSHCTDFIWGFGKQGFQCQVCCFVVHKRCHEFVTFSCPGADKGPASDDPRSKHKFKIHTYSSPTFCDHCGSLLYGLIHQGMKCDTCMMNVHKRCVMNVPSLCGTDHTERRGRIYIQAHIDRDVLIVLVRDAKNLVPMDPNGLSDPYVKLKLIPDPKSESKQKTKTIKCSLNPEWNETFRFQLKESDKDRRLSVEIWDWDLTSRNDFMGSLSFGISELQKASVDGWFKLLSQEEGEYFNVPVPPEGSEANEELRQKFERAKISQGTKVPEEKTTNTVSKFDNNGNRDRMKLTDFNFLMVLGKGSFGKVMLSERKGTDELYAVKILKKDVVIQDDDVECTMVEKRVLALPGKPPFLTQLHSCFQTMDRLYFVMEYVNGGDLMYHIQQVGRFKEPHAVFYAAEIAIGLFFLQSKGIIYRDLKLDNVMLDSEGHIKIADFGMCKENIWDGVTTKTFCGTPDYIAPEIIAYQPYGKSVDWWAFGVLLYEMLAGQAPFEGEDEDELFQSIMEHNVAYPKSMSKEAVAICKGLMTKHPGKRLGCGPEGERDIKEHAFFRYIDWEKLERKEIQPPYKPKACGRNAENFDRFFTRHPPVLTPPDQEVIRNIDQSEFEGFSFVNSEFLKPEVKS
row,SMILES,inhibition at 1.14 µM [%]
1,"Cc1n[nH]c2nc(-c3ccc(O)c(F)c3)cc(C(=O)N(C)C3CCN(C)CC3)c12 [Example 331, 6-(3-Fluoro-4-hydroxy-phenyl)-3-methyl-1H-pyrazolo[3,4-b]pyridine-4-carboxylic acid methyl-(1-methyl-piperidin-4-yl)-amide]",41
2,"Cc1n[nH]c2nc(-c3ccc(O)c(F)c3)cc(C(=O)NC3CN4CCC3CC4)c12 (stereo not shown) [Example 333, 6-(3-Fluoro-4-hydroxy-phenyl)-3-methyl-1H-pyrazolo[3,4-b]pyridine-4-carboxylic acid (1-aza-bicyclo[2.2.2]oct-3-yl)-amide]",67
3,"Cc1n[nH]c2nc(-c3ccc(O)c(F)c3)cc(C(=O)N3CCN[C@H](C)C3)c12 [Example 337, [6-(3-Fluoro-4-hydroxy-phenyl)-3-methyl-1H-pyrazolo[3,4-b]pyridin-4-yl]-((R)-3-methyl-piperazin-1-yl)-methanone]",93
4,"Cc1n[nH]c2nc(-c3ccc(O)c(F)c3)cc(C(=O)NC3CCC(N)CC3)c12 (stereo not shown) [Example 338, 6-(3-Fluoro-4-hydroxy-phenyl)-3-methyl-1H-pyrazolo[3,4-b]pyridine-4-carboxylic acid (4-amino-cyclohexyl)-amide]",68
5,"Cc1n[nH]c2nc(-c3ccc(O)c(F)c3)cc(C(=O)N3CC4(CCNCC4)C3)c12 [Example 339, (2,7-Diaza-spiro[3.5]non-2-yl)-[6-(3-fluoro-4-hydroxy-phenyl)-3-methyl-1H-pyrazolo[3,4-b]pyridin-4-yl]-methanone]",73
6,"Cc1n[nH]c2nc(-c3ccc(O)c(F)c3)cc(C(=O)N3CCC4(CCNC4)C3)c12 (stereo not shown) [Example 340, (2,7-Diaza-spiro[4.4]non-2-yl)-[6-(3-fluoro-4-hydroxy-phenyl)-3-methyl-1H-pyrazolo[3,4-b]pyridin-4-yl]-methanone]",67
7,"Cc1n[nH]c2nc(-c3ccc(O)c(F)c3)cc(C(=O)N3CCCC4(CNCCO4)C3)c12 (stereo not shown) [Example 345, [6-(3-Fluoro-4-hydroxy-phenyl)-3-methyl-1H-pyrazolo[3,4-b]pyridin-4-yl]-(1-oxa-4,8-diaza-spiro[5.5]undec-8-yl)-methanone]",58
8,"Cc1n[nH]c2nc(-c3ccc(O)c(F)c3)cc(C(=O)N3CCCC4(CCNC4)C3)c12 (stereo not shown) [Example 346, (2,7-Diaza-spiro[4.5]dec-7-yl)-[6-(3-fluoro-4-hydroxy-phenyl)-3-methyl-1H-pyrazolo[3,4-b]pyridin-4-yl]-methanone]",59
9,"Cc1n[nH]c2nc(-c3ccc(O)c(F)c3)cc(C(=O)NC3CCCNC3)c12 (stereo not shown) [Example 349, 6-(3-Fluoro-4-hydroxy-phenyl)-3-methyl-1H-pyrazolo[3,4-b]pyridine-4-carboxylic acid piperidin-3-ylamide]",81
10,"Cc1n[nH]c2nc(-c3ccc(O)c(F)c3)cc(C(=O)NC3CC4CC3CN4)c12 (stereo not shown) [Example 350, 6-(3-Fluoro-4-hydroxy-phenyl)-3-methyl-1H-pyrazolo[3,4-b]pyridine-4-carboxylic acid (2-aza-bicyclo[2.2.1]hept-5-yl)-amide]",77
11,"Cc1n[nH]c2nc(-c3ccc(O)c(F)c3)cc(C(=O)N3CCNC(C)C3C)c12 (stereo not shown) [Example 352, (2,3-Dimethyl-piperazin-1-yl)-[6-(3-fluoro-4-hydroxy-phenyl)-3-methyl-1H-pyrazolo[3,4-b]pyridin-4-yl]-methanone]",84
12,"Cc1n[nH]c2nc(-c3ccc(O)c(F)c3)cc(C(=O)NCC3CCNC3)c12 (stereo not shown) [Example 354, 6-(3-Fluoro-4-hydroxy-phenyl)-3-methyl-1H-pyrazolo[3,4-b]pyridine-4-carboxylic acid (pyrrolidin-3-ylmethyl)-amide]",52
13,"CCN1CC2CC1CN2C(=O)c1cc(-c2ccc(O)c(F)c2)nc2[nH]nc(C)c12 (stereo not shown) [Example 358, (5-Ethyl-2,5-diaza-bicyclo[2.2.1]hept-2-yl)-[6-(3-fluoro-4-hydroxy-phenyl)-3-methyl-1H-pyrazolo[3,4-b]pyridin-4-yl]-methanone]",28
14,"Cc1n[nH]c2nc(-c3ccc(O)c(F)c3)cc(C(=O)NCC3CCC(=O)N3)c12 (stereo not shown) [Example 359, 6-(3-Fluoro-4-hydroxy-phenyl)-3-methyl-1H-pyrazolo[3,4-b]pyridine-4-carboxylic acid (5-oxo-pyrrolidin-2-ylmethyl)-amide]",36

# Results, then the compound that gave them:
row,inhibition at 1.14 µM [%],SMILES
1,45,"Cc1n[nH]c2nc(-c3ccc(O)c(F)c3)cc(C(=O)N3CC4(CCNCC4)c4ccccc43)c12 [Example 330, (1,2-Dihydro-5-spiro[3H-indole-3,4′-piperidin]-1-yl)-[6-(3-fluoro-4-hydroxy-phenyl)-3-methyl-1H-pyrazolo[3,4-b]pyridin-4-yl]-methanone]"
2,63,"CCN1CCCC(NC(=O)c2cc(-c3ccc(O)c(F)c3)nc3[nH]nc(C)c23)C1 (stereo not shown) [Example 332, 6-(3-Fluoro-4-hydroxy-phenyl)-3-methyl-1H-pyrazolo[3,4-b]pyridine-4-carboxylic acid (1-ethyl-piperidin-3-yl)-amide]"
3,53,"Cc1n[nH]c2nc(-c3ccc(O)c(F)c3)cc(C(=O)N3C[C@]4(C)CN(C)C[C@](C)(C3)C4O)c12 (stereo partly drawn) [Example 334, [6-(3-Fluoro-4-hydroxy-phenyl)-3-methyl-1H-pyrazolo[3,4-b]pyridin-4-yl]-((1S,5R)-9-hydroxy-1,5,7-trimethyl-3,7-diaza-bicyclo[3.3.1]non-3-yl)-methanone]"
4,61,"Cc1n[nH]c2nc(-c3ccc(O)c(F)c3)cc(C(=O)N(C)C3CCNCC3)c12 [Example 335, 6-(3-Fluoro-4-hydroxy-phenyl)-3-methyl-1H-pyrazolo[3,4-b]pyridine-4-carboxylic acid methyl-piperidin-4-yl-amide]"
5,73,"Cc1n[nH]c2nc(-c3ccc(O)c(F)c3)cc(C(=O)N3CCC(N)C3)c12 (stereo not shown) [Example 336, (3-Amino-pyrrolidin-1-yl)-[6-(3-fluoro-4-hydroxy-phenyl)-3-methyl-1H-pyrazolo[3,4-b]pyridin-4-yl]-methanone]"
6,53,"Cc1n[nH]c2nc(-c3ccc(O)c(F)c3)cc(C(=O)N3CCC4(CCNC4)CC3)c12 [Example 341, (2,8-Diaza-spiro[4.5]dec-8-yl)-[6-(3-fluoro-4-hydroxy-phenyl)-3-methyl-1H-pyrazolo[3,4-b]pyridin-4-yl]-methanone]"
7,60,"Cc1n[nH]c2nc(-c3ccc(O)c(F)c3)cc(C(=O)N3CCC4(CC3)CNCCO4)c12 [Example 342, [6-(3-Fluoro-4-hydroxy-phenyl)-3-methyl-1H-pyrazolo[3,4-b]pyridin-4-yl]-(1-oxa-4,9-diaza-spiro[5.5]undec-9-yl)-methanone]"
8,49,"Cc1n[nH]c2nc(-c3ccc(O)c(F)c3)cc(C(=O)N3CCC4(CCNCC4)C3)c12 [Example 343, (2,8-Diaza-spiro[4.5]dec-2-yl)-[6-(3-fluoro-4-hydroxy-phenyl)-3-methyl-1H-pyrazolo[3,4-b]pyridin-4-yl]-methanone]"
9,64,"Cc1n[nH]c2nc(-c3ccc(O)c(F)c3)cc(C(=O)N3CCOC4(CCNCC4)C3)c12 [Example 344, [6-(3-Fluoro-4-hydroxy-phenyl)-3-methyl-1H-pyrazolo[3,4-b]pyridin-4-yl]-(1-oxa-4,9-diaza-spiro[5.5]undec-4-yl)-methanone]"
10,35,"Cc1n[nH]c2nc(-c3ccc(O)c(F)c3)cc(C(=O)N3CC[C@@H](N(C)C)C3)c12 [Example 347, ((R)-3-Dimethylamino-pyrrolidin-1-yl)-[6-(3-fluoro-4-hydroxy-phenyl)-3-methyl-1H-pyrazolo[3,4-b]pyridin-4-yl]-methanone]"
11,44,"Cc1n[nH]c2nc(-c3ccc(O)c(F)c3)cc(C(=O)N3CC[C@H](N(C)C)C3)c12 [Example 348, ((S)-3-Dimethylamino-pyrrolidin-1-yl)-[6-(3-fluoro-4-hydroxy-phenyl)-3-methyl-1H-pyrazolo[3,4-b]pyridin-4-yl]-methanone]"
12,88,"Cc1n[nH]c2nc(-c3ccc(O)c(F)c3)cc(C(=O)N3CCN[C@@H](CC(C)C)C3)c12 [Example 351, [6-(3-Fluoro-4-hydroxy-phenyl)-3-methyl-1H-pyrazolo[3,4-b]pyridin-4-yl]-((S)-3-isobutyl-piperazin-1-yl)-methanone]"
13,70,"COC(=O)CC1CNCCN1C(=O)c1cc(-c2ccc(O)c(F)c2)nc2[nH]nc(C)c12 (stereo not shown) [Example 353, {1-[6-(3-Fluoro-4-hydroxy-phenyl)-3-methyl-1H-pyrazolo[3,4-b]pyridine-4-carbonyl]-piperazin-2-yl}-acetic acid methyl ester]"
14,60,"Cc1n[nH]c2nc(-c3ccc(O)c(F)c3)cc(C(=O)NC3CCCN(C)C3)c12 (stereo not shown) [Example 355, 6-(3-Fluoro-4-hydroxy-phenyl)-3-methyl-1H-pyrazolo[3,4-b]pyridine-4-carboxylic acid (1-methyl-piperidin-3-yl)-amide]"
15,31,"CC(=O)N1CCN(C(=O)c2cc(-c3ccc(O)c(F)c3)nc3[nH]nc(C)c23)CC1 [Example 356, 1-{4-[6-(3-Fluoro-4-hydroxy-phenyl)-3-methyl-1H-pyrazolo[3,4-b]pyridine-4-carbonyl]-piperazin-1-yl}-ethanone]"
16,21,"CC(=O)N1CCC(NC(=O)c2cc(-c3ccc(O)c(F)c3)nc3[nH]nc(C)c23)CC1 [Example 357, 6-(3-Fluoro-4-hydroxy-phenyl)-3-methyl-1H-pyrazolo[3,4-b]pyridine-4-carboxylic acid (1-acetyl-piperidin-4-yl)-amide]"
17,52,"Cc1n[nH]c2nc(-c3ccc(O)c(F)c3)cc(C(=O)NC3CCN(C4CCCCC4)CC3)c12 [Example 360, 6-(3-Fluoro-4-hydroxy-phenyl)-3-methyl-1H-pyrazolo[3,4-b]pyridine-4-carboxylic acid (1-cyclohexyl-piperidin-4-yl)-amide]"
